Publication PMC10327353 (Breast Cancer Research : BCR, 2023)
“And” between values parts separate entries of the source, which are not always exact repeats. Equal entries are not always repeated.

Assay: Phase 1 study: safety and tolerability
Type: in vivo
Procedure: The maximum tolerated dose (MTD) of DZD1516 was defined based on safety data and the Bayesian optimal interval (BOIN) design (Additional file 1). The definition of DLT is provided in Additional file 1.
The AE grading was assessed according to the NCI-Common Terminology Criteria for Adverse Events (CTCAE) (version 5.0) and was monitored until 28 days after the last dose.
Eligible patients received single oral dosing of DZD1516 on Cycle 0 Day 1 (C0D1), followed by a 7-day washout. Twice daily oral dosing (bid) of DZD1516 was commenced from C1D1 in a continuous 21-day cycle until disease progression, unacceptable toxicity, or withdrawal of consent. All doses were taken under fed conditions (within 30 minutes after a meal).
Planned dosing consisted of 25, 50, 100, 200, 300, and 400 mg. Each dose escalation cohort will comprise a minimum of three and a maximum of six evaluable patients (except only one patient in the starting dose cohort). The maximum tolerated dose of DZD1516 was defined according to safety data and the Bayesian optimal interval (BOIN) design. Dose escalation/de-escalation rule with target toxicity rate for the MTD is 0.30 with interval of (0.20, 0.33).
DLTs were any adverse event (AE) not clearly attributable to the patient’s disease, including ≥ grade 4 hematological toxicities present for ≥ 4 days, grade 3 thrombocytopenia with bleeding, or grade 4 thrombocytopenia lasting for > 5 days, ≥ grade 3 non-hematological toxicities that is dose-limiting in the judgment of the investigators. Any other toxicity that is greater than that at baseline, is clinically significant or unacceptable, and is judged to be a DLT by the SRC. Exceptions included alopecia of any grade and isolated grade 3 laboratory change without clinical sequelae or clinical significance.
Safety evaluations were conducted at screening, on Day 1, 8, and 15 of Cycle 1, on Day 1 of each subsequent treatment cycle, at the end-of-treatment visit, and clinically indicated. Safety assessments included clinical laboratory measurements (hematology, chemistry, coagulation, and urinalysis), electrocardiogram (ECG), Echocardiogram/MUGA scan, ECOG performance status, vital signs, and physical examinations.

In the case of COc1cc(O[C@H]2CCN(C)CC2(F)F)c2c(Nc3ccc(Oc4ccn5ncnc5c4)c(C)c3)ncnc2c1 [DZD1516], the “Any TEAE: SAE” value (Total (N = 23)) is reported as 2 (8.7) n (%), the “Aspartate aminotransferase increased, Any Grade” value (Total (N = 23)) is reported as 5 (21.7) n (%) and the “Aspartate aminotransferase increased, ≥ Grade 3” value (Total (N = 23)) is reported as 0 (0.0) n (%). The “Blood and lymphatic system disorders, Any Grade” value (Total (N = 23)) was 3 (13.0) n (%), the “Blood and lymphatic system disorders, ≥ Grade 3” value (Total (N = 23)) was 0 (0.0) n (%) and the “Blood bilirubin increased, Any Grade” value (Total (N = 23)) was 4 (17.4) n (%). The “Blood bilirubin increased, ≥ Grade 3” value (Total (N = 23)) was 0 (0.0) n (%), the “Cardiac disorders, Any Grade” value (Total (N = 23)) was 3 (13.0) n (%) and the “Cardiac disorders, ≥ Grade 3” value (Total (N = 23)) was 0 (0.0) n (%). The “Constipation, Any Grade” value (Total (N = 23)) was 3 (13.0) n (%), the “Constipation, ≥ Grade 3” value (Total (N = 23)) was 0 (0.0) n (%) and the “Decreased appetite, Any Grade” value (Total (N = 23)) was 4 (17.4) n (%). The “Decreased appetite, ≥ Grade 3” value (Total (N = 23)) was 0 (0.0) n (%), the “Dizziness, Any Grade” value (Total (N = 23)) was 3 (13.0) n (%) and the “Dizziness, ≥ Grade 3” value (Total (N = 23)) was 1 (4.3) n (%). The “Drug-related TEAE: Grade 3” value (Total (N = 23)) was 4 n (%) and 4 (17.4) n (%), the “Drug-related TEAE: Leading to death” value (Total (N = 23)) was 0 (0.0) n (%) and the “Drug-related TEAE: Leading to dose reduction” value (Total (N = 23)) was 3 (13.0) n (%). For the same compound, the “Drug-related TEAE: Leading to treatment discontinuation” value (Total (N = 23)) was 0 (0.0) n (%), the “Drug-related TEAE: Leading to treatment interruption” value (Total (N = 23)) was 3 (13.0) n (%) and the “Drug-related TEAE: SAE” value (Total (N = 23)) was 1 (4.3) n (%). The “Fatigue, Any Grade” value (Total (N = 23)) was 4 (17.4) n (%), the “Fatigue, ≥ Grade 3” value (Total (N = 23)) was 1 (4.3) n (%) and the “Gastrointestinal disorders, Any Grade” value (Total (N = 23)) was 10 (43.5) n (%). The “Gastrointestinal disorders, ≥ Grade 3” value (Total (N = 23)) was 3 (13.0) n (%), the “General disorders and administration site conditions, Any Grade” value (Total (N = 23)) was 8 (34.8) n (%) and the “General disorders and administration site conditions, ≥ Grade 3” value (Total (N = 23)) was 2 (8.7) n (%). For the same compound, the “Headache, Any Grade” value (Total (N = 23)) was 10 (43.5) n (%), the “Headache, ≥ Grade 3” value (Total (N = 23)) was 0 (0.0) n (%) and the “Hemoglobin decreased, Any Grade” value (Total (N = 23)) was 7 (30.4) n (%). The “Hemoglobin decreased, ≥ Grade 3” value (Total (N = 23)) was 0 (0.0) n (%), the “Investigations, Any Grade” value (Total (N = 23)) was 14 (60.9) n (%) and the “Investigations, ≥ Grade 3” value (Total (N = 23)) was 2 (8.7) n (%). The “Lipase increased, Any Grade” value (Total (N = 23)) was 3 (13.0) n (%), the “Lipase increased, ≥ Grade 3” value (Total (N = 23)) was 0 (0.0) n (%) and the “Malaise, Any Grade” value (Total (N = 23)) was 3 (13.0) n (%). For the same compound, the “Malaise, ≥ Grade 3” value (Total (N = 23)) was 1 (4.3) n (%), the “Metabolism and nutrition disorders, Any Grade” value (Total (N = 23)) was 11 (47.8) n (%) and the “Metabolism and nutrition disorders, ≥ Grade 3” value (Total (N = 23)) was 0 (0.0) n (%). For the same compound, the “Musculoskeletal and connective tissue disorders, Any Grade” value (Total (N = 23)) was 7 (30.4) n (%), the “Musculoskeletal and connective tissue disorders, ≥ Grade 3” value (Total (N = 23)) was 2 (8.7) n (%) and the “Nausea, Any Grade” value (Total (N = 23)) was 6 (26.1) n (%). For the same compound, the “Nausea, ≥ Grade 3” value (Total (N = 23)) was 1 (4.3) n (%), the “Nervous system disorders, Any Grade” value (Total (N = 23)) was 14 (60.9) n (%) and the “Nervous system disorders, ≥ Grade 3” value (Total (N = 23)) was 2 (8.7) n (%). For the same compound, the “Participants with any TEAE, Any Grade” value (Total (N = 23)) was 22 (95.7) n (%), the “Participants with any TEAE, ≥ Grade 3” value (Total (N = 23)) was 6 (26.1) n (%) and the “Platelet count decreased, Any Grade” value (Total (N = 23)) was 3 (13.0) n (%). For the same compound, the “Platelet count decreased, ≥ Grade 3” value (Total (N = 23)) was 0 (0.0) n (%), the “Proteinuria, Any Grade” value (Total (N = 23)) was 4 (17.4) n (%) and the “Proteinuria, ≥ Grade 3” value (Total (N = 23)) was 0 (0.0) n (%). For the same compound, the “Renal and urinary disorders, Any Grade” value (Total (N = 23)) was 5 (21.7) n (%), the “Renal and urinary disorders, ≥ Grade 3” value (Total (N = 23)) was 0 (0.0) n (%) and the “Subjects with any TEAE” value (Total (N = 23)) was 22 (95.7) n (%). The “Subjects with any drug-related TEAE” value (Total (N = 23)) was 21 (91.3) n (%), the “Vomiting, Any Grade” value (Total (N = 23)) was 8 (34.8) n (%) and the “Vomiting, ≥ Grade 3” value (Total (N = 23)) was 2 (8.7) n (%). The “White blood cell count decreased, Any Grade” value (Total (N = 23)) was 3 (13.0) n (%), the “White blood cell count decreased, ≥ Grade 3” value (Total (N = 23)) was 0 (0.0) n (%) and the “grade 4 or 5 AEs” value (all dose levels) was “No grade 4 or 5 AEs were reported”. For the same compound, the “maximum tolerated dose (MTD)” value (patients, BID) was 250 mg.
